According to US6887997B2, “9H-imidazo[1,2-a]purin-9-one compounds” (Yung Shin Pharmaceutical Ind. Co., Ltd., priority 2001, dated 2005):

O=c1c2ncn(COCCO)c2nc2[nH]c(-c3ccc(Cl)s3)cn12 [compound 2, 3-(2-Hydroxy-ethoxymethyl)-6-(5-chloro-thiophen-2-yl)-3,5-dihydro-1,3,4,5,7a-pentaaza-s-indacen-8-one]
melting point: 226 to 228 °C
